ChEMBL document CHEMBL5260813, “An overview on the recent developments of 1,2,4-triazine derivatives as anticancer compounds” (Eur J Med Chem, 2017)
≈ marks a conversion by molar mass, not a printed value. Values belong to the compound of their own block, whether it stands above or below them.

Assays:
KB = assay: Antiproliferative activity against human KB cells assessed as inhibition of cell growth under hypoxia condition; assay type: functional, cell-based
A549 [1] = assay: Antiproliferative activity against human A549 cells assessed as inhibition of cell growth under hypoxia condition; assay type: functional, cell-based
A549 [2] = assay: Antiproliferative activity against human A549 cells assessed as inhibition of cell growth incubated for 72 hrs by MTT assay; assay type: functional, cell-based; conditions: A549, 72 h
SMMC-7721 = assay: Antiproliferative activity against human SMMC-7721 cells assessed as inhibition of cell growth incubated for 72 hrs by MTT assay; assay type: functional, cell-based; conditions: SMMC-7721, 72 h
K562 [3] = assay: Induction of apoptosis in human K562 cells assessed as increase in apoptotic cells under normoxia condition relative to control; assay type: functional
K562 [4] = assay: Induction of apoptosis in human K562 cells assessed as increase in apoptotic cells under hypoxia condition relative to control; assay type: functional
[5] = target: T1, Tyrosine-protein kinase SYK (Homo sapiens, UniProt P43405); assay: Inhibition of human SYK using 5-Fluo-Ahx-GAPDYENLQELNKK-Amid as substrate in presence of ATP by microfluidic mobility shift assay
TMD8 = assay: Antiproliferative activity against human TMD8 cells assessed as inhibition of cell growth incubated for 3 days by WST-1 assay; assay type: functional, cell-based; conditions: TMD8, 72 h
OCI-Ly10 = assay: Antiproliferative activity against human OCI-Ly10 cells assessed as inhibition of cell growth incubated for 3 days by WST-1 assay; assay type: functional, cell-based; conditions: OCI-Ly10, 72 h
[6] = Antiproliferative activity against human HBL1 cells assessed as inhibition of cell growth incubated for 3 days by WST-1 assay; assay type: functional, cell-based; conditions: HBL1, 72 h
[7] = target: T1, Tyrosine-protein kinase SYK; assay: Inhibition of SYK in human Ramos cells assessed as reduction in anti IgM-induced phosphorylation of BLNK by flow cytometry assay; assay type: cell-based
MCF7 [8] = assay: Antiproliferative activity against human MCF7 cells assessed as inhibition of cell growth by MTT assay; assay type: functional, cell-based
HepG2 = assay: Antiproliferative activity against human HepG2 cells assessed as cell growth inhibition by MTT assay; assay type: functional, cell-based
HCT-116 = assay: Antiproliferative activity against human HCT-116 cells assessed as inhibition of cell growth by MTT assay; assay type: functional, cell-based
[9] = target: T2, Interleukin-1 receptor-associated kinase 4 (Homo sapiens, UniProt Q9NWZ3); assay: Inhibition of human GST-tagged IRAK4 incubated for 30 mins in presence of ATP by fluorescent polarization assay
T2 sequence (Q9NWZ3 whole entry): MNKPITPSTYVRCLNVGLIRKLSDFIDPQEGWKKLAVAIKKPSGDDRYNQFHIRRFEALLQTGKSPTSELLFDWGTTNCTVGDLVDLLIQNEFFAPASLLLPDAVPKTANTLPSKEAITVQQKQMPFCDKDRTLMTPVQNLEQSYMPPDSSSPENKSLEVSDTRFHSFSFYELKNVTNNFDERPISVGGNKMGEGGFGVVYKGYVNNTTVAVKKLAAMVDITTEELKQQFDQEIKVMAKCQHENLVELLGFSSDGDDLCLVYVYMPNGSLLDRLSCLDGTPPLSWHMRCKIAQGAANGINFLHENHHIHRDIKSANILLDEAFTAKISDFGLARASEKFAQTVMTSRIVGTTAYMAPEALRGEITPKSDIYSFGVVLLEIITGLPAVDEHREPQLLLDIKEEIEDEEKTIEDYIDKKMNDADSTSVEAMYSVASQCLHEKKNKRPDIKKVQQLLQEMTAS

MDA-MB-468 = assay: Antiproliferative activity against human MDA-MB-468 cells assessed as reduction in cell viability; assay type: functional
[10] = target: Glutaminase kidney isoform, mitochondrial (Homo sapiens, UniProt O94925); assay: Inhibition of GLS in human PC-3 cells using glutamine as substrate by amplex red staining-based horseradish peroxidase/glutamate oxidase coupled assay; assay type: cell-based
MCF7 [11] = assay: Antiproliferative activity against human MCF7 cells assessed as inhibition of cell growth at 100 uM relative to control; assay type: functional
SF-268 [12] = assay: Antiproliferative activity against human SF-268 cells assessed as inhibition of cell growth at 100 uM relative to control; assay type: functional
OVCAR-4 = assay: Antiproliferative activity against human OVCAR-4 cells assessed as cell growth inhibition; assay type: functional, cell-based
CAKI-1 = assay: Antiproliferative activity against human CAKI-1 cells assessed as inhibition of cell growth; assay type: functional, cell-based
PC-3 = assay: Antiproliferative activity against human PC-3 cells assessed as inhibition of cell growth measured after 48 hrs by MTT assay; assay type: functional, cell-based; conditions: PC-3, 48 h
MCF7 [13] = assay: Antiproliferative activity against human MCF7 cells assessed as inhibition of cell growth measured after 48 hrs by MTT assay; assay type: functional, cell-based; conditions: MCF7, 48 h
NCI-H460 [14] = assay: Antiproliferative activity against human NCI-H460 cells assessed as inhibition of cell growth measured after 48 hrs by MTT assay; assay type: functional, cell-based; conditions: NCI-H460, 48 h
MDA-MB-231 [15] = assay: Antiproliferative activity against human MDA-MB-231 cells assessed as inhibition of cell growth by MTT assay; assay type: functional, cell-based
MCF7 [16] = assay: Antiproliferative activity against human MCF7 cells assessed as inhibition of cell growth by [3H]thymidine incorporation assay; assay type: functional, cell-based
MDA-MB-231 [17] = assay: Antiproliferative activity against human MDA-MB-231 cells assessed as inhibition of cell growth by [3H]thymidine incorporation assay; assay type: functional, cell-based
[18] = target: Fibroblast growth factor receptor (Homo sapiens, UniProt P22607+P11362+P22455+P21802); assay: Inhibition of FGFR (unknown origin); assay type: protein assay
MCF7 [19] = assay: Antiproliferative activity against human MCF7 cells assessed as inhibition of cell growth; assay type: functional, cell-based
NCI-H460 [20] = assay: Antiproliferative activity against human NCI-H460 cells assessed as inhibition of cell growth; assay type: functional, cell-based
SF-268 [21] = assay: Antiproliferative activity against human SF-268 cells assessed as inhibition of cell growth; assay type: functional, cell-based
[22] = target: Cyclin-dependent kinase 2/cyclin E1 (Homo sapiens, UniProt P24941); assay: Inhibition of CDK2/cyclin E1 (unknown origin) expressed in Sf9 cells
[23] = Cytotoxicity against human CEM cells assessed as inhibition of cell growth incubated for 72 hrs by MTT assay; assay type: toxicity, cell-based; conditions: CEM (CCRF-CEM) cells, pooled result: one value given for 5 cell lines, strains, targets or settings
MCF7 [24] = assay: Cytotoxicity against human MCF7 cells assessed as inhibition of cell growth incubated for 72 hrs by MTT assay; assay type: functional, cell-based; conditions: MCF7, 72 h
[25] = system: Panel NCI-60 (60 carcinoma cell lines); assay: Antiproliferative activity against human Panel NCI-60 (60 carcinoma cell lines) cells assessed as inhibition of cell growth; assay type: functional, cell-based

Glutaminase kidney isoform, mitochondrial, sequence (O94925 whole entry, canonical isoform): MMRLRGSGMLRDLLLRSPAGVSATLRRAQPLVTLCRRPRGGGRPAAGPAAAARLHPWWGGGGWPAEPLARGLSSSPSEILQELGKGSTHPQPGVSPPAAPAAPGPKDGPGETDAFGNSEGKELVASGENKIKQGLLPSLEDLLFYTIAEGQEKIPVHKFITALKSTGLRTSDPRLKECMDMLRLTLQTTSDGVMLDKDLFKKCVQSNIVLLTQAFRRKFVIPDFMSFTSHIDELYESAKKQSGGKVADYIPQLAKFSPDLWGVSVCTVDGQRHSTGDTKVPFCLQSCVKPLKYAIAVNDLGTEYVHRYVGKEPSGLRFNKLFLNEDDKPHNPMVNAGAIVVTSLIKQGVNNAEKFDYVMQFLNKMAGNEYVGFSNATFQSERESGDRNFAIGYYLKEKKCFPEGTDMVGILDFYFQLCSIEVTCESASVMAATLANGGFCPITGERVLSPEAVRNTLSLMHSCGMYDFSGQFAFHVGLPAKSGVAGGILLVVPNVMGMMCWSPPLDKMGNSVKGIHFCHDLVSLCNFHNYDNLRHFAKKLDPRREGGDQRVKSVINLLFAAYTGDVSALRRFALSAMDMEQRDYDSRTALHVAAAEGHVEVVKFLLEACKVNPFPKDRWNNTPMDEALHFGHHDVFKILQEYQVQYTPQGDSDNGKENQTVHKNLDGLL

Compound: COCNc1n[n+]([O-])c2ccccc2[n+]1[O-]
IC50 (KB): 2.7 µM
IC50 (A549 [1]): 2.7 µM

Compound: CCOCNc1n[n+]([O-])c2ccccc2[n+]1[O-]
IC50 (A549 [2]): 3.12 µM
IC50 (SMMC-7721): 3.12 µM
IC50 (KB): 4.09 µM
Activity (K562 [3]): 9.5%
Activity (K562 [4]): 32.11%

Compound: COc1ccc(COCNc2n[n+]([O-])c3ccccc3[n+]2[O-])cc1
IC50 (KB): 3.32 µM
Activity (K562 [3]): 14.13%
Activity (K562 [4]): 33.07%

Compound: [O-][n+]1nc(NCOCc2ccc(C(F)(F)F)cc2)[n+]([O-])c2ccccc21
IC50 (KB): 4.27 µM
Activity (K562 [3]): 14.95%
Activity (K562 [4]): 54.24%

Compound: NC(=O)c1nnc(N[C@@H]2CCCC[C@@H]2N)nc1Nc1cccc2cc[nH]c12
IC50 [5]: 0.0008 µM
IC50 (TMD8): 0.281 µM
IC50 (OCI-Ly10): 0.025 µM
IC50 [6]: 0.105 µM
IC50 [7]: 0.014 µM

Compound: O=c1[nH]n2c(=O)c(/C=C/c3cccs3)nnc2s1
IC50 (MCF7 [8]): 8.34 µg/mL
IC50 (HepG2): 8.34 µg/mL (≈ 30 µM)
IC50 (HCT-116): 8.34 µg/mL (≈ 30 µM)

Compound: O=C(O)CCc1nn2c(=O)c(/C=C/c3cccs3)nnc2s1
IC50 (MCF7 [8]): 11.7 µg/mL
IC50 (HepG2): 12.1 µg/mL (≈ 36.3 µM)
IC50 (HCT-116): 8.34 µg/mL (≈ 24.9 µM)

IC50 [9]: 0.001 µM
Compound: CCn1cc(NC(=O)c2ccc3cnc(NC4CCCCC4N)nn23)c(C(N)=O)n1 (stereo not drawn)

Compound: CC(C)c1ccc(-c2nn3nnc4ccccc4c3nc2=O)cc1
GI50 (MDA-MB-468): 0.41 µM

IC50 [10]: 0.043 µM
Compound: COC(C(=O)Cc1cnc(NC2CCN(c3cncnn3)C2)s1)c1cccc(OC(F)(F)F)c1 (stereo not drawn)

Compound: CC(=O)OC[C@H]1O[C@@H](n2nc(Cc3ccccc3)c(=S)n(N)c2=S)[C@H](OC(C)=O)[C@@H](OC(C)=O)[C@H]1OC(C)=O
inhibition at 100 µM (MCF7 [11]): 15%
inhibition at 100 µM (SF-268 [12]): 38%

Compound: Cc1nn(C)c2nn3nnnc3nc12
IC50 (OVCAR-4): 1.12 µM
IC50 (CAKI-1): 1.12 µM
IC50 (PC-3): 0.4 µM
IC50 (MCF7 [13]): 0.4 µM
IC50 (NCI-H460 [14]): 0.4 µM

Compound: c1ccc(-c2nnc(SSc3nnc(-c4ccccc4)c(-c4ccccc4)n3)nc2-c2ccccc2)cc1
IC50 (MCF7 [8]): 25 µM
IC50 (MDA-MB-231 [15]): 25 µM
IC50 (MCF7 [16]): 35 µM
IC50 (MDA-MB-231 [17]): 39 µM

IC50 [18]: 0.35 µM
Compound: CCn1c(=O)c(-c2cc(OC)cc(OC)c2)cc2nnc(Nc3ccncc3)nc21

Compound: c1ccc(-c2cc(SN3CCOCC3)nnc2-c2ccccc2)cc1
IC50 (MCF7 [8]): 91 µM
IC50 (MDA-MB-231 [15]): 88 µM
IC50 (MCF7 [16]): 87 µM
IC50 (MDA-MB-231 [17]): 84 µM

Compound: c1ccc(-c2cc(SN3CCCC3)nnc2-c2ccccc2)cc1
IC50 (MCF7 [8]): 30 µM
IC50 (MDA-MB-231 [15]): 25 µM
IC50 (MCF7 [16]): 15 µM
IC50 (MDA-MB-231 [17]): 40 µM

Compound: Cc1ccc(C2=NN=C(/C(C#N)=N/Nc3sc4c(c3C#N)CCCC4)N(Nc3ccccc3)C2)cc1
IC50 (MCF7 [19]): 12.4 µM
IC50 (NCI-H460 [20]): 6.8 µM
IC50 (SF-268 [21]): 8.3 µM

IC50 [9]: 0.0007 µM
Compound: Cn1cc(NC(=O)c2ccc3cnc(NC4CCCCC4N)nn23)c(C(N)=O)n1 (stereo not drawn)

IC50 [9]: 0.003 µM
Compound: NC(=O)c1nn(CCO)cc1NC(=O)c1ccc2cnc(NC3CCCCC3N)nn12 (stereo not drawn)

Compound: Oc1cccc(-n2nc(-c3cc(O)c(O)c(O)c3)c3nc(-c4ccc(Cl)cc4)nnc32)c1
IC50 [22]: 17.3 µM
IC50 at 72 h [23]: 1.9 µM
IC50 (MCF7 [24]): 1.9 µM

Compound: Cc1c(C#N)c2nnc(C(N)=O)c(N)n2c1-c1ccccc1
IC50 (OVCAR-4): 2.77 µM
IC50 [25]: 3.34 µM

Compound: O=C(O)c1ccccc1-c1nn2c(=O)c(/C=C/c3cccs3)nnc2s1
IC50 (MCF7 [8]): 8.34 µg/mL
IC50 (HepG2): 8.34 µg/mL (≈ 21.8 µM)
IC50 (HCT-116): 8.34 µg/mL (≈ 21.8 µM)

Compound: Oc1cc(-c2nn(-c3cc(O)c(O)c(O)c3)c3nnc(-c4ccc(Cl)cc4)nc23)cc(O)c1O
IC50 [22]: 11 µM
IC50 at 72 h [23]: 0.77 µM
IC50 (MCF7 [24]): 0.77 µM
